Data: ChEMBL document CHEMBL3882725, “Indazole derivatives as JNK inhibitors and compositions and methods related thereto” (2002)

Target: Mitogen-activated protein kinase 9 (Homo sapiens, UniProt P45984)
Assay: Inhibition of His6-tagged JNK2 (unknown origin) assessed as reduction in c-Jun phosphorylation using GST-c-Jun (1 to 79 residues) and [gamma32P]ATP incubated for 1 hr by scintillation counting assay

Sequence of Mitogen-activated protein kinase 9 (P45984 whole entry, the tested form may be a part): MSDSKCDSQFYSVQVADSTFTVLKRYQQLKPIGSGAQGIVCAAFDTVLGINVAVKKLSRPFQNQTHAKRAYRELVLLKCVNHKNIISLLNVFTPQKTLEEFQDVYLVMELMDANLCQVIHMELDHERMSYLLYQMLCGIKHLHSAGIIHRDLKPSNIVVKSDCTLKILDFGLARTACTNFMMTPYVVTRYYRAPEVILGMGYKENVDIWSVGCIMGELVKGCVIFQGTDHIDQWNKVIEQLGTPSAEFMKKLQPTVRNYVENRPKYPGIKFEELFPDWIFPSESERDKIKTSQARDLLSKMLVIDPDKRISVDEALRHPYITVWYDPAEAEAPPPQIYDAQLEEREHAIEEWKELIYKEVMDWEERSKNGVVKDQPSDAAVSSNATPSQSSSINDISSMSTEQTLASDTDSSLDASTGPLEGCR

Row | SMILES | IC50 [µM]
1 | CN(C)C(=O)c1ccc2[nH]nc(-c3ccc(F)cc3)c2c1 | ≤ 10
2 | Fc1ccc(-c2n[nH]c3ccc(-c4cc[nH]n4)cc23)cc1 | 1 to 10
3 | CC(C)c1cccc(-c2n[nH]c3ccc(-c4nc[nH]n4)cc23)c1 | 1 to 10
4 | Nc1cccc(-c2n[nH]c3ccc(-c4nnn[nH]4)cc23)c1 | 0.5 to 10
5 | Fc1ccc(-c2n[nH]c3ccc(-c4nc5ccccc5[nH]4)cc23)cc1 | ≤ 10
6 | CC(C)COc1ccc(-c2n[nH]c3ccc(-c4nnn[nH]4)cc23)cc1 | 1 to 10
7 | O=C(c1ccc2[nH]nc(-c3ccc(F)cc3)c2c1)N1CCNCC1 | ≤ 10
8 | CCOC(=O)c1ccc2[nH]nc(-c3ccc(F)cc3)c2c1 | 1 to 10
9 | NC(=O)c1ccc2[nH]nc(-c3cc4ccccc4o3)c2c1 | 1 to 10
10 | CC(C)(C)OC(=O)NNC(=O)c1ccc2[nH]nc(-c3ccc(F)cc3)c2c1 | 1 to 10
11 | O=C(NCc1ccncc1)c1ccc2[nH]nc(-c3ccc(F)cc3)c2c1 | 1 to 10
12 | NC(=O)c1ccc(NC(=O)c2ccc3[nH]nc(-c4ccc(F)cc4)c3c2)cc1 | 1 to 10
13 | c1ccc2cc(-c3n[nH]c4ccc(-c5ncn[nH]5)cc34)ccc2c1 | 1 to 10
14 | CC(C)c1ccc(-c2n[nH]c3ccc(-c4nnn[nH]4)cc23)cc1 | 1 to 10
15 | Fc1ccc(-c2n[nH]c3ccc(-c4nnc(Cc5ccccc5)[nH]4)cc23)cc1 | 1 to 10
16 | O=C(c1ccc2[nH]nc(-c3ccc(F)cc3)c2c1)N1CCCC1 | ≤ 10
17 | CN(C)CCOc1ccc(-c2n[nH]c3ccc(-c4ncn[nH]4)cc23)cc1 | 1 to 10
18 | c1ccc2oc(-c3n[nH]c4ccc(-c5nnn[nH]5)cc34)cc2c1 | 0.5 to 10
19 | O=C(Nc1ccccc1)c1ccc2[nH]nc(-c3ccc(F)cc3)c2c1 | ≤ 10
20 | O=C(NCc1ccccn1)c1ccc2[nH]nc(-c3ccc(F)cc3)c2c1 | 1 to 10
21 | O=C(Nc1ccncc1)c1ccc2[nH]nc(-c3ccc(F)cc3)c2c1 | 1 to 10
22 | NC(=O)c1ccc2[nH]nc(-c3ccc4ccccc4c3)c2c1 | 1 to 10
23 | NC(=O)c1ccc2[nH]nc(-c3ccc(O)cc3)c2c1 | 1 to 10

Row | SMILES | IC50 [µM]
24 | O=[N+]([O-])c1cccc(/C=C/c2ccc3[nH]nc(-c4ccc(F)cc4)c3c2)c1 | ≤ 10
25 | NC(=O)c1ccc2[nH]nc(-c3ccoc3)c2c1 | 1 to 10
26 | O=C(NCc1cccnc1)c1ccc2[nH]nc(-c3ccc(F)cc3)c2c1 | 1 to 10
27 | COc1ccc(-c2n[nH]c3ccc(-c4nnn[nH]4)cc23)cc1 | 0.5 to 10
28 | c1csc(-c2n[nH]c3ccc(-c4nnn[nH]4)cc23)c1 | 0.5 to 10
29 | O=C(Nc1ccc(F)cc1)Nc1ccc2[nH]nc(-c3ccc(F)cc3)c2c1 | ≤ 10
30 | CC(C)(C)OC(=O)CCNC(=O)c1ccc2[nH]nc(-c3ccc(F)cc3)c2c1 | ≤ 10
31 | O=C(Nc1nnn[nH]1)c1ccc2[nH]nc(-c3ccc(F)cc3)c2c1 | 1 to 10
32 | O=C(Nc1cccc(O)c1)c1ccc2[nH]nc(-c3ccc(F)cc3)c2c1 | 1 to 10
33 | C(#Cc1n[nH]c2ccc(-c3nnn[nH]3)cc12)c1ccccc1 | 1 to 10
34 | Fc1ccc(-c2n[nH]c3ccc(-c4nn[nH]n4)cc23)cc1 | 0.5 to 10
35 | c1cc(-c2n[nH]c3ccc(-c4nnn[nH]4)cc23)ccn1 | 0.5 to 10
36 | CC(C)c1cccc(-c2n[nH]c3ccc(C(N)=O)cc23)c1 | ≤ 10
37 | NC(=O)c1ccc2[nH]nc(-c3ccc(F)cc3)c2c1 | 1 to 10
38 | CCOC(=O)Cc1n[nH]c(-c2ccc3[nH]nc(-c4ccc(F)cc4)c3c2)n1 | 1 to 10
39 | O=C(NOCc1ccccc1)c1ccc2[nH]nc(-c3ccc(F)cc3)c2c1 | ≤ 10
40 | CN(C)c1ccc(-c2n[nH]c3ccc(-c4ncn[nH]4)cc23)cc1 | 1 to 10
41 | OC(Cc1ccccc1)c1ccc2[nH]nc(-c3ccc(F)cc3)c2c1 (configuration not stated) | 1 to 10
42 | NC(=O)CCNC(=O)c1ccc2[nH]nc(-c3ccc(F)cc3)c2c1 | 1 to 10
43 | O=C(Cc1ccccc1)c1ccc2[nH]nc(-c3ccc(F)cc3)c2c1 | ≤ 10
44 | O=C(O)C1CCN(C(=O)c2ccc3[nH]nc(-c4ccc(F)cc4)c3c2)CC1 | ≤ 10
45 | CCCc1n[nH]c(-c2ccc3[nH]nc(-c4ccc(F)cc4)c3c2)n1 | 1 to 10
46 | O=C(O)c1ccc2[nH]nc(-c3cc4ccccc4s3)c2c1 | 1 to 10

Row | SMILES | IC50 [µM]
47 | NC(=O)c1ccc2[nH]nc(C#Cc3ccccc3)c2c1 | 1 to 10
48 | O=C(Nc1ccccn1)c1ccc2[nH]nc(-c3ccc(F)cc3)c2c1 | ≤ 10
49 | COC(=O)c1ccc2[nH]nc(-c3cc4ccccc4s3)c2c1 | ≤ 10
50 | Fc1ccc(-c2n[nH]c3ccc(CCc4ccccn4)cc23)cc1 | ≤ 10
51 | COC(=O)c1ccc(NC(=O)c2ccc3[nH]nc(-c4ccc(F)cc4)c3c2)cc1 | ≤ 10
52 | O=C(NCC1CCCC[C@H]1O)c1ccc2[nH]nc(-c3ccc(F)cc3)c2c1 (some centres not stated) | 1 to 10
53 | COc1ccc(-c2n[nH]c3ccc(-c4ncn[nH]4)cc23)cc1 | 1 to 10
54 | O=C(O)CCNC(=O)c1ccc2[nH]nc(-c3ccc(F)cc3)c2c1 | 1 to 10
55 | C(=C\c1n[nH]c2ccc(-c3nnn[nH]3)cc12)/c1ccccc1 | 0.5 to 10
56 | c1cc2[nH]nc(-c3ccc4c(c3)OCO4)c2cc1-c1nnn[nH]1 | 0.5 to 10
57 | c1cncc(-c2n[nH]c3ccc(-c4nnn[nH]4)cc23)c1 | ≤ 10
58 | CCOC(=O)CCc1ccc2[nH]nc(-c3ccc(F)cc3)c2c1 | ≤ 10
59 | O=C(O)CNC(=O)c1ccc2[nH]nc(-c3ccc(F)cc3)c2c1 | 1 to 10
60 | Fc1ccc(-c2n[nH]c3ccc(-c4ncc[nH]4)cc23)cc1 | 1 to 10
61 | NCCNC(=O)c1ccc2[nH]nc(-c3ccc(F)cc3)c2c1 | ≤ 10
62 | Nc1cccc(NC(=O)c2ccc3[nH]nc(-c4ccc(F)cc4)c3c2)c1 | 1 to 10
63 | Fc1ccc(-c2n[nH]c3ccc(-c4nnc[nH]4)cc23)cc1 | 0.5 to 10
64 | Fc1ccc(-c2n[nH]c3ccc(-c4nc(-c5ccco5)n[nH]4)cc23)cc1 | 1 to 10
65 | c1cc(-c2n[nH]c3ccc(-c4nnn[nH]4)cc23)cs1 | 0.5 to 10
66 | O=C(O)c1ccc2[nH]nc(-c3ccc(F)cc3)c2c1 | 1 to 10
67 | COc1ccc(-c2n[nH]c3ccc(C(N)=O)cc23)cc1 | 1 to 10

Second part, the compound after the results:

Row | IC50 [µM] | SMILES
68 | 1 to 10 | CN(C)CCOc1ccc(-c2n[nH]c3ccc(C(N)=O)cc23)cc1
69 | 1 to 10 | Fc1ccc(-c2n[nH]c3ccc(-c4nc(-c5ccncc5)n[nH]4)cc23)cc1
70 | 1 to 10 | NC(=O)CCCNC(=O)c1ccc2[nH]nc(-c3ccc(F)cc3)c2c1
71 | 1 to 10 | CNC(=O)c1ccc2[nH]nc(-c3ccc(F)cc3)c2c1
72 | 1 to 10 | O=C(O)Cc1ccc(NC(=O)c2ccc3[nH]nc(-c4ccc(F)cc4)c3c2)cc1
73 | 0.5 to 10 | Clc1ccc(-c2n[nH]c3ccc(-c4nnn[nH]4)cc23)cc1
74 | ≤ 10 | CN(C)CCNC(=O)c1ccc2[nH]nc(-c3ccc(F)cc3)c2c1
75 | 1 to 10 | NC(=O)c1ccc2[nH]nc(-c3cc4ccccc4s3)c2c1
76 | 1 to 10 | O=C(Nc1cccnc1)c1ccc2[nH]nc(-c3ccc(F)cc3)c2c1
77 | 0.5 to 10 | CC(C)c1n[nH]c(-c2ccc3[nH]nc(-c4ccc(F)cc4)c3c2)n1
78 | 1 to 10 | Nc1ccc(-c2nnc(-c3ccc4[nH]nc(-c5ccc(F)cc5)c4c3)[nH]2)cc1
79 | 1 to 10 | C(=C\c1n[nH]c2ccc(-c3nc[nH]n3)cc12)/c1ccccc1
80 | ≤ 10 | O=C(O)CCc1ccc2[nH]nc(-c3ccc(F)cc3)c2c1
81 | 1 to 10 | c1nc(-c2ccc3[nH]nc(-c4ccsc4)c3c2)n[nH]1
82 | 1 to 10 | O=C(O)CCCNC(=O)c1ccc2[nH]nc(-c3ccc(F)cc3)c2c1
83 | 1 to 10 | Oc1ccccc1-c1n[nH]c2ccc(-c3nnn[nH]3)cc12
84 | 1 to 10 | O=C(NO)c1ccc2[nH]nc(-c3ccc(F)cc3)c2c1
85 | 0.5 to 10 | c1ccc2cc(-c3n[nH]c4ccc(-c5nnn[nH]5)cc34)ccc2c1
86 | 1 to 10 | COc1ccccc1-c1n[nH]c2ccc(-c3nnn[nH]3)cc12
87 | ≤ 10 | O=C(NCCCN1CCOCC1)c1ccc2[nH]nc(-c3ccc(F)cc3)c2c1
88 | 1 to 10 | Cc1n[nH]c(-c2ccc3[nH]nc(-c4ccc(F)cc4)c3c2)n1
89 | 1 to 10 | CC(C)(C)OC(=O)CNC(=O)c1ccc2[nH]nc(-c3ccc(F)cc3)c2c1
90 | 1 to 10 | CN(C)c1ccc(-c2n[nH]c3ccc(C(N)=O)cc23)cc1

Row | IC50 [µM] | SMILES
91 | 0.5 to 10 | Oc1cccc(-c2n[nH]c3ccc(-c4nnn[nH]4)cc23)c1
92 | 0.5 to 10 | COc1cccc(-c2n[nH]c3ccc(-c4nnn[nH]4)cc23)c1
93 | ≤ 10 | Fc1ccc(-c2n[nH]c3ccc(/C=C/c4ccncc4)cc23)cc1
94 | 1 to 10 | O=C(O)c1ccc(CNC(=O)c2ccc3[nH]nc(-c4ccc(F)cc4)c3c2)cc1
95 | 1 to 10 | O=C(O)CCCCNC(=O)c1ccc2[nH]nc(-c3ccc(F)cc3)c2c1
96 | ≤ 10 | Fc1ccc(-c2n[nH]c3ccc(CCc4ccccc4)cc23)cc1
97 | 1 to 10 | c1ccc(CCc2n[nH]c3ccc(-c4nnn[nH]4)cc23)cc1
98 | 1 to 10 | CC(O)CNC(=O)c1ccc2[nH]nc(-c3ccc(F)cc3)c2c1 (configuration not stated)
99 | 1 to 10 | Oc1ccc(-c2n[nH]c3ccc(-c4ncn[nH]4)cc23)cc1
100 | 1 to 10 | NNC(=O)c1ccc2[nH]nc(-c3ccc(F)cc3)c2c1
101 | 0.5 to 10 | c1coc(-c2n[nH]c3ccc(-c4nnn[nH]4)cc23)c1
102 | 1 to 10 | O=C(O)c1ccc(NC(=O)c2ccc3[nH]nc(-c4ccc(F)cc4)c3c2)cc1
103 | 1 to 10 | O=C(Nc1cccc([N+](=O)[O-])c1)c1ccc2[nH]nc(-c3ccc(F)cc3)c2c1
104 | ≤ 10 | O=C(O)c1ccc(CCc2ccc3[nH]nc(-c4ccc(F)cc4)c3c2)cc1
105 | ≤ 10 | Fc1ccc(-c2n[nH]c3ccc(/C=C/c4ccccn4)cc23)cc1
106 | 1 to 10 | Fc1ccc(-c2n[nH]c3ccc(-c4nc(-c5ccccc5)n[nH]4)cc23)cc1
107 | 1 to 10 | Cn1cncc1CCNC(=O)c1ccc2[nH]nc(-c3ccc(F)cc3)c2c1
108 | ≤ 10 | CCOC(=O)C1CCN(C(=O)c2ccc3[nH]nc(-c4ccc(F)cc4)c3c2)CC1
109 | 1 to 10 | Cc1nnc(-c2ccc3[nH]nc(-c4ccc(F)cc4)c3c2)o1
110 | 1 to 10 | c1n[nH]c(-c2ccc3[nH]nc(-c4ccoc4)c3c2)n1
111 | 1 to 10 | O=C(O)/C=C/c1ccc2[nH]nc(-c3ccc(F)cc3)c2c1
112 | 1 to 10 | NCCCNC(=O)c1ccc2[nH]nc(-c3ccc(F)cc3)c2c1
